Results reported in US20150038418A1, “NATRIURETIC PEPTIDE COMPOSITIONS AND METHODS OF PREPARATION” (MEDTRONIC, INC., priority 2011, published 2015).

Tested on: Prostaglandin E2 (PGE2)
Assay: Serum Prostaglandin E2 after 6 weeks subcutaneous infusion of VD in Dahl/SS rats
Format: in vivo, rat
Conditions: 4% salt diet
Source text: The pharmacodynamic effects of VD were investigated in a rat model. Forty male Dahl/SS rats were shipped to the animal facilities at PhysioGenix, Inc. (Milwaukee, Wis.). The rats were maintained on a low-salt diet and allowed to acclimate. After acclimation, animals had baseline parameters collected while on the low-salt diet. Animals were then randomly assigned to one of 4 groups (10 animals per group):
1. Vehicle Control; low-salt diet, n=10 2. Vehicle Control; 4% salt diet, n=10 3. Vessel dilator, 100 ng/kg/min infusion of VD, 4% salt diet, n=10 4. Vessel dilator, 300 ng/kg/min infusion of VD, 4% salt diet, n=10
Lyophilized VD peptide (Bachem) was reconstituted in a Tris buffer having the same composition as the Tris buffer of Example 1. The vehicle control groups were infused with a citrate-mannitol-saline buffer (0.66 mg/mL citric acid, 6.43 mg/mL sodium citrate, 40 mg/mL mannitol, 9 mg/mL NaCl). The animals were on a Teklad 7034 (low-salt) diet or Dyets AIN-76A 4% salt diet, as indicated, throughout a 6 week course of the study and had free access to water. […]
Alzet® minipumps (Durect, Corp.) were surgically implanted on Days 1, 15, and 29 of the study to maintain continuous vehicle or drug dispensing at the desired dose for a total period of 6 weeks. At the end of 6 weeks, the serum content of Prostaglandin E2 (PGE2) was measured.

VD: Vessel Dilator, ANP prohormone a.a. 31-67, EVVPPQVLSEPNEEAGAALSPLPEVPPWTGEVSPAQR (SEQ ID No. 4) (listed as Homo sapiens)
PGE2 concentration in serum versus control groups (SQ infusion 100 ng/kg·min): similar | PGE2 concentration in serum versus control groups (SQ infusion 300 ng/kg·min, p<0.05): significantly higher than for any of the other 3 groups
